The source of these data is EP3925949A1, “AZIDO COMPOUNDS AND METHOD FOR MONITORING ACID CERAMIDASE ACTIVITY IN INTACT CELLS USING THEM” (Consejo Superior de Investigaciones Científicas (CSIC), priority 2020, dated 2021).

Experiment [1] deals with mitochondria. Nature of the experiment: Confocal co-localization of probe/CO-1 staining with Mitotracker. In kind it is cell-based. As to conditions: A375/+Dox, RBM5-177 probe, FB1 100 µM 24 h or SOCLAC 5 µM 1 h, independent treatments. As to the method: Cells were seeded at 1 × 10^5 cells/mL on glass-bottom plates and allowed to adhere for 24 h. For golgi staining, cells were incubated with 40 µL/well of CellLight Golgi-RFP BacMam 2.0 for 24 h. Medium was replaced with fresh medium containing RBM5-177, RBM5-019, RBM2-37 or RBM2-31 (5 µM final concentration) and cells were incubated for 20 min at 37 °C. After this time, the medium was replaced with fresh medium containing CO-1 (1 µM final concentration), and cells were incubated for 10 min. Then cells were washed 3 times with DMEM for 5 min at 37 °C, 75 nM LysoTracker Red DND-99 or 75 nM Mitotracker in phenol red-free DMEM was added to stain lysosomes or mitochondria, and cells were kept in the incubator for microscope analysis. Staining was viewed with a Zeiss LSM 880 confocal microscope or Leica TCS SP8-Hyvolution. Image analysis was performed using Fiji software.^[7] To measure the Manders's and Pearson's coefficients a threshold including organelles and discarding the background was set. Co-localization coefficients were measured using the JaCoP plugin (S. Bolte et al. J. Microsc. 2006, 224, 213-232) on the different stacks of images (at least n=4) with each stack containing 3-10 cells.

Experiment [2] addresses T1, human recombinant neutral ceramidase (NC) (Homo sapiens, UniProt Q9NR71).
T1 construct: purchased R&D Systems
Nature of the experiment: Hydrolysis of RBM5-177 by recombinant NC, UPLC-HRMS. In kind it is biochemical. As to conditions: RBM5-177 5 µM, 30 min. On the procedure: Cells were seeded at 5 × 10^5 cells/mL into 6 well plates (1 mL/well) and were allowed to adhere for 24 h. Medium was replaced with fresh medium containing RBM5-177, RBM5-019 or RBM2-37 (5 µM final concentration). After 30 min, medium was removed; cells were washed with 400 µL PBS and harvested with 400 µL Trypsin-EDTA and 600 µL of medium. NC recombinant enzyme, lysates from A375-AC overexpressing cells, MEF5 or microsomes from HeLa T-Rex ACER1-TET-ON and HeLa T-Rex […] activity buffer. Cell pellets were resuspended with 100 µL of H2O and mixed with 750 µL of methanol: chloroform, 2:1. Samples were heated at 48°C overnight and next day, 75 µL of 1 M KOH in methanol were added, followed by 2 h incubation at 37°C. Afterwards, the saponification was neutralised with 75 µL of 1 M acetic acid and solvent was removed using a Speed Vac Savant SPD131 DDA (Thermo Scientific). Sphingolipid extracts, fortified with internal standards (N-dodecanoylsphingosine, N-dodecanoylglucosylsphingosine, N-dodecanoylsphingosylphosphorylcoline and C17-sphinganine 0.2 nmol each) were solubilised in 150 µL of methanol. Samples were then centrifuged at 9,300 g for 3 min and 130 µL of the supernatant were injected to a Waters Aquity UPLC system connected to a Waters LCT Premier Orthogonal Accelerated Time of Flight Mass Spectrometer (Waters,Milford, MA, USA) operated in positive electrospray ionisation mode. […]

T1 sequence (Q9NR71 whole entry): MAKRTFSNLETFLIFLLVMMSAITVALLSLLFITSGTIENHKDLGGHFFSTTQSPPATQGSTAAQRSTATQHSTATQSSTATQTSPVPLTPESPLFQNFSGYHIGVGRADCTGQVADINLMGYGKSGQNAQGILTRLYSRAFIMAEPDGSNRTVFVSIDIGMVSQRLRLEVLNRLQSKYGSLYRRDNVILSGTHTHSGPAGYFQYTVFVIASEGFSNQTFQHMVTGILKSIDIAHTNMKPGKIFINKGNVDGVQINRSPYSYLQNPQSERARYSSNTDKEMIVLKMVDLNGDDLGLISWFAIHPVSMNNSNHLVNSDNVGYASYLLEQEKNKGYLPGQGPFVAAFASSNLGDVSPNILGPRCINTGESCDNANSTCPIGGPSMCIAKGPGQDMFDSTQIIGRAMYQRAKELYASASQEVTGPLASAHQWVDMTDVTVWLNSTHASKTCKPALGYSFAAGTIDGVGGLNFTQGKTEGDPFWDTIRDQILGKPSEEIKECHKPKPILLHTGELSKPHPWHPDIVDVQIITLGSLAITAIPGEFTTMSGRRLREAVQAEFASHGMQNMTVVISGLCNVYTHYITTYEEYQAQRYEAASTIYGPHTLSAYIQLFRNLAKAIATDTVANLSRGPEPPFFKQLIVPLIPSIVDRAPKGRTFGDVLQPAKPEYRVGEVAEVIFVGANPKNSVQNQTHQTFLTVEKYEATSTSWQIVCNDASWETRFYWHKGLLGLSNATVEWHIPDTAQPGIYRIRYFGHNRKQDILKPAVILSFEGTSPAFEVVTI

In the case of `CCCCCCCCCCCCC/C=C/[C@@H](O)[C@H](CO)NC(=O)CCl` [SOCLAC], the “effect on mitochondria labelling” value in experiment [1] is “mitochondria labelling was precluded”.

Take `CCCCCCCC(=O)N[C@@H](C)[C@H](O)CCCCCCCCCCCCN=[N+]=[N-]` [RBM5-177, N-((2S,3R)-15-azido-3-hydroxypentadecan-2-yl)octanamide]: the “RBM5-19 formation (hydrolysis as substrate)” value in experiment [2] is recorded as “transformed into the free amine only by AC”.
